Data taken from patent US20130065227A1, “METHODS OF INCREASING MACROPINOCYTOSIS IN CANCER CELLS” (priority 2010, published 2013).

What was measured:
[1] = test system: MCF7; assay: Stimulation of macropinocytosis (dextran uptake); type: cell-based; conditions: MCF7; Cancer, breast
Description: (§1) FIG. 10 are graphs showing the stimulation of macropinocytosis by GROs. Breast carcinoma cells (MDA-MB-231, MCF-7) or non-malignant breast epithelial cells (MCF10A) cells were plated 18 hr before treatment with 10 μM tAS1411 or 10 μM tCRO or water in complete DMEM medium at 37° C. for 48 hr or 72 hr. After treatment, cell medium was changed for fresh complete medium containing 0.2 mg/ml dextran-10K labeled with Alexa Fluor 488 and cells were incubated for 30 min at 37° C. Cells were then incubated on ice with 1 mg/ml PI in PBS, harvested, and analyzed by flow cytometry. Uptake was normalized to no pre-treatment controls and bars show the mean and SE of three independent experiments.
(§2) To analyze uptake of the oligodeoxynucleotides or dextran-10K (macropinocytic marker) by flow cytometry, 2×10^5 cells in fresh supplemented culture medium (2.5 ml) were plated into 6-well plates for 18 h. After complete adhesion, the cells were incubated with 5′-FAM tagged oligodeoxynucleotides or Alexa Fluor 488 tagged dextran-10K and incubated as indicated in the Description of the Drawings. Cells were washed once with ice-cold PBS, incubated with 1 μg/ml 7-amino-actinomycin D (7-AAD) for 5 min on ice or 1 μg/ml propidium iodide (PI), and washed twice with ice-cold PBS. Cells were then treated with 0.01% trypsin/0.5 mM EDTA (300 μl) for 3 min prior addition 3 ml supplemented culture medium. The cells were then centrifuged and resuspended in 0.5 ml of 1% paraformaldehyde for analysis by flow cytometry using a FACScalibur cytometer (BD Biosciences, Mountain View, Calif.).
(§3) AS1411 causes a change in cancer cell morphology that is characterized by vacuolization, irregular nuclei, and swollen cells (Xu et al., 2001, J. Biol. Chem., 276:43221-30). Therefore, the effect of AS1411 on macropinocytosis in DU145 cells and non-malignant Hs27 cells was investigated. […] As in all of the flow cytometry experiments, cells were gated to exclude permeable cells, discounting the possibility that this increase was due to cell death. […] One implication of the finding that AS1411 causes hyperstimulation of macropinocytosis is that treatment of AS1411 might actually promote its own internalization by cancer cells. To test this idea, DU145 cells were pre-treated for 24 h with tAS1411, then added FL-AS1411 and evaluated uptake after an additional 2 h using flow cytometry. […] This idea is not necessarily inconsistent with the time course data shown in FIG. 1A because the fluorescence signal may decrease over time for a number of reasons, including exocytosis of the ligand and fluorescence quenching due to protein binding or environmental factors (the fluorophore used for flow cytometry is particularly sensitive to acidic environments). […]

[2] = test system: MDA-MB-231; assay: Stimulation of macropinocytosis (dextran uptake); type: cell-based; conditions: MDA-MB-231; Cancer, breast
Description: as §1, §2, §3

[3] = test system: Hs27; assay: Stimulation of macropinocytosis (dextran uptake); type: cell-based, human; conditions: Hs27; Non-cancer, skin fibroblasts
Description: (Panel A) DU145 cells were treated with 10 μM tAS1411 or 10 μM tCRO or no oligonucleotide in complete DMEM medium at 37° C. for the time indicated. After treatment, cell medium was changed for fresh complete medium containing 0.2 mg/ml dextran-10K labeled with Alexa Fluor 488, and cells were incubated for 30 min at 37° C. After incubation, cells were harvested and analyzed by flow cytometry to determine dextran uptake. (Panel B) The same experiment was performed using Hs27 cells. (Panel C) DU145 cells were treated with 10 μM tAS1411 or 10 μM tCRO or no oligonucleotide in complete DMEM medium at 37° C. for 48 h. […]
AS1411 causes a change in cancer cell morphology that is characterized by vacuolization, irregular nuclei, and swollen cells (Xu et al., 2001, J. Biol. Chem., 276:43221-30). […] To test this idea, DU145 cells were pre-treated for 24 h with tAS1411, then added FL-AS1411 and evaluated uptake after an additional 2 h using flow cytometry. […] This idea is not necessarily inconsistent with the time course data shown in FIG. 1A because the fluorescence signal may decrease over time for a number of reasons, including exocytosis of the ligand and fluorescence quenching due to protein binding or environmental factors (the fluorophore used for flow cytometry is particularly sensitive to acidic environments). […]

[4] = test system: cancer cells; assay: Stimulation of macropinocytosis / induced uptake; type: cell-based
From the text: A number of additional G-rich oligonucleotides were obtained and used to evaluate whether or not macropinocytosis was increased in cancer cells using the methodology described herein. For example, the following sequences were used:
In addition, the G-rich oligonucleotides disclosed in Dapic et al. (2003, Nuc. Acids Res.,31:2097 -107; KS-A though KS-I) and the G-rich oligonucleotides (e.g., telomere homologs, GT oligonucleotides, Stat3 binders, Dz13, and triplex oligonucleotides with aptameric effects) disclosed in Bates et al. (2009, Exp. Mol. Path., 86:151-64) and references therein are shown to stimulate macropinocytosis in cancer cells.
Furthermore, due to the unique properties of MPsomes, delivery by MP leads to increased functional activity. Thus, treatment with AS1411, followed by administration of an anticancer siRNA, for example, leads to a synergistic increase in anticancer effects without harming normal cells. Another strategy to potentiate the effects of AS1411 is to combine it with agents that promote MP and activation of Rac. This leads to increased macropinocytic uptake of AS1411 and/or enhanced methuosis.

[5] = test system: RWPE1; assay: Uptake of AS1411 by macropinocytosis (MP); type: cell-based; conditions: Non-cancer, prostate epithelial
From the text: (§4) It has recently been discovered that AS1411 can stimulate macropinocytosis (MP) in cancer cells and this finding was verified by several different methods and in multiple cancer cell lines (Table 1).

[6] = test system: CHO; assay: Uptake of AS1411 by macropinocytosis (MP); type: cell-based; conditions: Non-cancer, hamster ovary
From the text: as §4

[7] = test system: RCC4; assay: Uptake of AS1411 by macropinocytosis (MP); type: cell-based; conditions: Cancer, renal cell
From the text: as §4

[8] = test system: A549; assay: Uptake of AS1411 by macropinocytosis (MP); type: cell-based; conditions: Cancer, non-small cell lung
From the text: as §4

[9] = test system: BEAS2B; assay: Uptake of AS1411 by macropinocytosis (MP); type: cell-based; conditions: Non-cancer, lung epithelial
From the text: as §4

[10] = test system: MCF10A; assay: Cell response to AS1411; type: cell-based, human; conditions: Non-cancer, breast epithelial
From the text: as §4

[11] = test system: Hs27; assay: Cell response to AS1411; type: cell-based, human; conditions: Non-cancer, skin fibroblasts
From the text: as §4

Substance: 5′-d(GGTGGTGGTGGTTGTGGTGGTGGTGG) [AS1411]
- Stimulate MP? [1]: Yes
- Stimulate MP? [2]: Yes
- Stimulate MP? [3]: No
- induced uptake from the culture medium after pre-treatment [4]: induced uptake of dextran, AS1411, or transferrin (by MP)
- Update by MP? [5]: No
- Update by MP? [6]: No
- Update by MP? [7]: Yes
- Update by MP? [8]: Yes
- Update by MP? [9]: Low
- Cells respond? [10]: No
- Cells respond? [11]: No
